US11400079B2, “Antibacterial monobactams” (University of Notre Dame du Lac, priority 2017, dated 2022)
Values after ≈ are worked out from the molar mass of the structure shown. Structures can show the parent of a compound that is named as a salt. Where two headings read alike, the source gives them in different places.

Assays:
[1] = tested on: strong β-lactamase producing strains of P. aeruginosa (ARC 3502 and ARC 3506); assay: Antibacterial activity, alone and in combination with tazobactam; assay type: cell-based; details: co-administration with tazobactam
Description: (§1) General Methods. All solvents and reagents were obtained from commercial sources and used without further purification unless otherwise stated. General methods of purification of compounds involved the use column chromatography with silica gel (230-400 mesh) purchased from Silicycle, Quebec City, Canada. The reactions were monitored by TLC on precoated Merck 60 F254 silica gel plates and visualized using UV light (254 nm).
(§2) Antibacterial assays were performed using iron depleted media as described previously (J. Med. Chem. 2017, 60, 4577).

[2] = tested on: Gram-negative bacteria; assay: Antibacterial activity against tested Gram-negative strains (summary in words); assay type: cell-based; details: tested strains of Gram-negative bacteria
Description: as §1, §2

[3] = tested on: A. baumannii ARC 5079; assay: MIC antibacterial assay (iron depleted media); assay type: cell-based, Acinetobacter baumannii; details: Acinetobacter baumannii, ARC5079
Description: as §1, §2

[4] = tested on: A. baumannii ATCC 17978-PNT-320; assay: MIC antibacterial assay (iron depleted media); assay type: cell-based, Acinetobacter baumannii; details: Acinetobacter baumannii, ATCC17978
Description: as §1, §2

[5] = tested on: A. baumannii ATCC BAA 1793; assay: MIC antibacterial assay (iron depleted media); assay type: cell-based, Acinetobacter baumannii; details: Acinetobacter baumannii, BAA1793
Description: as §1, §2

[6] = tested on: A.baumannii ISR14-005; assay: MIC antibacterial assay (iron depleted media); assay type: cell-based, Acinetobacter baumannii; details: Acinetobacter baumannii, ISR14005
Description: as §1, §2

[7] = tested on: E. coli DCO; assay: MIC antibacterial assay (iron depleted media); assay type: cell-based; details: Escherichia coli
Description: as §1, §2

[8] = tested on: P. aeruginosa ARC 3506; assay: MIC antibacterial assay (iron depleted media); assay type: cell-based; details: Pseudomonas aeruginosa, ARC3506
Description: as §1, §2

[9] = tested on: Proteus mirabilis X235; assay: MIC antibacterial assay (iron depleted media); assay type: cell-based
Description: as §1, §2

[10] = tested on: Citrobacter freuendii ATCC 29063; assay: MIC antibacterial assay (iron depleted media); assay type: cell-based; details: ATCC29063
Description: as §1, §2

[11] = tested on: A. baumannii ATCC BAA 1797; assay: MIC antibacterial assay (iron depleted media); assay type: cell-based; details: Acinetobacter baumannii, BAA1797
Description: as §1, §2

[12] = tested on: A. baumannii ATCC 17961; assay: MIC antibacterial assay (iron depleted media); assay type: cell-based; details: Acinetobacter baumannii, ATCC17961
Description: as §1, §2

[13] = tested on: A. baumannii ATCC17978-PNT-165; assay: MIC antibacterial assay (iron depleted media); assay type: cell-based; details: Acinetobacter baumannii
Description: as §1, §2

[14] = tested on: Enterobacter aerogenes X816; assay: MIC antibacterial assay (iron depleted media); assay type: cell-based; details: Klebsiella aerogenes
Description: as §1, §2

[15] = tested on: P. aeruginosa 01; assay: MIC antibacterial assay (iron depleted media); assay type: cell-based; details: Pseudomonas aeruginosa
Description: as §1, §2

[16] = tested on: Salmonella typhimurium ATCC13311; assay: MIC antibacterial assay (iron depleted media); assay type: cell-based; details: Salmonella enterica
Description: as §1, §2

[17] = tested on: P. aeruginosa ISR-14-004; assay: MIC antibacterial assay (iron depleted media); assay type: cell-based; details: Pseudomonas aeruginosa, ISR14004
Description: as §1, §2

[18] = tested on: P. aeruginosa KW799/wt; assay: MIC antibacterial assay (iron depleted media); assay type: cell-based; details: Pseudomonas aeruginosa
Description: as §1, §2

[19] = tested on: S. aureus SG 511; assay: MIC antibacterial assay (iron depleted media); assay type: cell-based; details: Staphylococcus aureus, SG511
Description: as §1, §2

[20] = tested on: B. dolosa AU0018; assay: MIC antibacterial assay (iron depleted media); assay type: cell-based; details: Burkholderia dolosa
Description: as §1, §2

[21] = tested on: P. aeruginosa ISR-14-003; assay: MIC antibacterial assay (iron depleted media); assay type: cell-based; details: Pseudomonas aeruginosa, ISR14003
Description: as §1, §2

[22] = tested on: A. baumannii ATCC BAA 1800; assay: MIC antibacterial assay (iron depleted media); assay type: cell-based, Acinetobacter baumannii; details: Acinetobacter baumannii, BAA1800, MH2 broth with 160 μM bipyridyl added
Description: as §1, §2

[23] = tested on: P. aeruginosa ARC 3502; assay: MIC antibacterial assay (iron depleted media); assay type: cell-based; details: Pseudomonas aeruginosa
Description: as §1, §2

[24] = tested on: β-lactamase producing strains of A. baumannii; assay: Antibacterial activity in combination with tazobactam; assay type: cell-based, Acinetobacter baumannii; details: combinations with tazobactam
Description: as §1, §2

[25] = tested on: panel of Gram-negative and Gram-positive bacteria; assay: Antibacterial activity against a panel of bacteria; assay type: cell-based
Description: as §1, §2

Compound: CC(C)(O/N=C(\C(=O)NC1C(=O)N(S(=O)(=O)O)[C@H]1CSCCN)c1cnc(N)s1)C(=O)O (mixture of isomers) [Compound 39, (E)-3-(2-(2-aminothiazol-5-yl)-2-(((2-carboxypropan-2-yl)oxy)imino)acetamido)-2-(((2-ammonioethyl)thio)methyl)-4-oxoazetidine-1-sulfonate, potassium salt]
- effect of combination with tazobactam on activity (in words) [1]: no improvement
- antibacterial activity (in words) [2]: generally improved activity
- MIC [3]: > 50 µM
- MIC [4]: > 50 µM
- MIC [5]: 50 µM
- MIC [6]: > 50 µM
- MIC [7]: 6 µM
- MIC [8]: > 50 µM
- MIC ([9]; Proteus mirabilis, X235): 3 µM
- MIC ([10]; Citrobacter): 3 µM
- MIC [11]: 50 µM
- MIC [12]: > 50 µM
- MIC [13]: 50 µM
- MIC ([14]; X816): 9.4 µM
- MIC [15]; 01: > 50 µM
- MIC [16]: 4.5 µM
- MIC [17]: > 50 µM
- MIC ([18]; KW799/WT): > 50 µM
- MIC [19]: > 50 µM
- MIC ([20]; AU0018): > 50 µM
- MIC [21]: > 50 µM

Compound: CC(C)(O/N=C(\C(=O)NC1C(=O)N(S(=O)(=O)O)C1CSCCNC(=O)CN(CCCCNC(=O)c1cccc(O)c1O)C(=O)c1cccc(O)c1O)c1cnc(N)s1)C(=O)O (racemic) [Compound 42, (E)-2-(((1-(2-Aminothiazol-5-yl)-2-((2-(8-(2,3-dihydroxybenzoyl)-14-(2,3-dihydroxyphenyl)-6,14-dioxo-2-thia-5,8,13-triazatetradecyl)-4-oxo-1-sulfoazetidin-3-yl)amino)-2-oxoethylidene)amino)oxy)-2-methylpropanoic acid]
- effect of combination with tazobactam on activity (in words) [1]: most improved activity
- antibacterial activity (in words) [2]: remarkably potent
- MIC [4]: 0.4 µM (≈ 0.364 µg/mL)
- MIC [22]: 0.1 to 0.4 µM (≈ 0.0911 to 0.364 µg/mL)
- MIC ([6]; A. baumannii ISR14-005 (clinical isolate), compound alone, MH2 broth with 160 μM bipyridyl added, read-out: MIC): > 50 µM
- MIC ([6]; A. baumannii ISR14-005 (clinical isolate), in combination with tazobactam, read-out: MIC (+tazo)): 25 µM
- MIC ([7]; E. coli DCO, MH2 broth with 160 μM bipyridyl added, read-out: MIC): < 0.025 µM
- MIC ([8]; P. aeruginosa ARC 3506, compound alone, MH2 broth with 160 μM bipyridyl added, read-out: MIC): > 50 µM
- MIC ([9]; Proteus mirabilis X235, MH2 broth with 160 μM bipyridyl added, read-out: MIC): < 0.025 µM
- MIC ([10]; Citrobacter freuendii ATCC 29063, MH2 broth with 160 μM bipyridyl added, read-out: MIC): 0.05 µM (≈ 0.0455 µg/mL)
- MIC ([11]; A. baumannii ATCC BAA 1797, MH2 broth with 160 μM bipyridyl added, read-out: MIC): 0.4 µM (≈ 0.364 µg/mL)
- MIC ([12]; A. baumannii ATCC 17961, MH2 broth with 160 μM bipyridyl added, read-out: MIC): 0.2 µM (≈ 0.182 µg/mL)
- MIC ([23]; ARC3502, compound alone, MH2 broth with 160 μM bipyridyl added, read-out: MIC): > 50 µM
- MIC ([23]; ARC3502, in combination with tazobactam, plus some growth at 50, clear between 1.6-50, read-out: MIC (+tazo)): 1.6 µM
- MIC [13]: 0.4 µM (≈ 0.364 µg/mL)
- MIC ([14]; Enterobacter aerogenes X816, MH2 broth with 160 μM bipyridyl added, read-out: MIC): 0.075 µM (≈ 0.0683 µg/mL)
- MIC ([15]; P. aeruginosa 01, MH2 broth with 160 μM bipyridyl added, read-out: MIC): 0.4 µM (≈ 0.364 µg/mL)
- MIC ([16]; Salmonella typhimurium ATCC13311, MH2 broth with 160 μM bipyridyl added, read-out: MIC): 0.025 µM (≈ 0.0228 µg/mL)
- MIC ([17]; P. aeruginosa ISR-14-004 (clinical isolate), compound alone, MH2 broth with 160 μM bipyridyl added, read-out: MIC): 6 µM (≈ 5.47 µg/mL)
- MIC ([17]; P. aeruginosa ISR-14-004 (clinical isolate), in combination with tazobactam, read-out: MIC (+tazo)): 3 µM
- MIC ([18]; P. aeruginosa KW799/wt, MH2 broth with 160 μM bipyridyl added, read-out: MIC): 0.4 µM (≈ 0.364 µg/mL)
- MIC ([19]; S. aureus SG 511, MH2 broth with 160 μM bipyridyl added, read-out: MIC): > 50 µM
- MIC ([20]; B. dolosa AU0018, MH2 broth with 160 μM bipyridyl added, read-out: MIC): > 50 µM
- MIC ([21]; P. aeruginosa ISR-14-003 (clinical isolate), compound alone, MH2 broth with 160 μM bipyridyl added, read-out: MIC): 1.6 µM (≈ 1.46 µg/mL)
- MIC ([21]; P. aeruginosa ISR-14-003 (clinical isolate), in combination with tazobactam, read-out: MIC (+tazo)): 1.6 µM
- effect of combination with tazobactam on activity (in words) [24]: most enhancement of activity

Compound: COC(=O)CSCC1C(NC(=O)Cc2ccccc2)C(=O)N1S(=O)(=O)[O-].[K+] (stereo not shown) [Compound 24, Potassium 2-(((2-methoxy-2-oxoethyl)thio)methyl)-4-oxo-3-(2-phenylacetamido) azetidine-1-sulfonate]
- antibacterial activity (in words) ([25]; panel of Gram-negative and Gram-positive bacteria): not active
- antibacterial activity (MIC) ([25]; tested strains): > 50 µM
